This is an account of results in patent US20250144128A1, “CANCER TREATMENT” (Nucana plc, priority 2022, published 2025).

Data set [1] relates to adenosine deaminase (ADA). Conditions: inactive metabolite 3′-deoxyinosine; Tsai et al. 2010; cited from earlier work.
Data set [2] concerns A375 melanoma or A549 lung cancer cell lines. Kind of data set: mRNA decrease in the cell line studies (RT-qPCR), cell line not specified. The data set is classed as cell-based. The note with it: NUC-7738 10 uM vs DMSO. The method, then: (§1) A375 melanoma cell lines and A549 lung cancer cell lines were treated with solvent-control DMSO or NUC-7738 (10 uM) for 72 hours, after which media supernatants were collected for either soluble PD-L1 analysis or EV isolation. In addition, adherent cells were collected for RNA and protein isolation.
To determine RNA expression of soluble transcript, cells were lysed and RNA isolated using the RNAeasy Kit (Qiagen, Cat #74136). This was then followed by RNA reverse transcription into cDNA using QuantiNova Reverse Transcription Kit (Qiagen, Cat #205413). Primers for each gene were designed using PrimerQuest™ (Integrated DNA Technologies) and ordered at 100 uM concentrations from IDT. The soluble PD-L1 transcript primer was designed to create an amplicon of about 100 bp size crossing the exon 4 and intron 4 junction.
RT-qPCR was carried out using the qPCRBIO SyGreen MasterMix kit (PCRBiossystems Cat #PB20.14-50) and the Rotor qene Q qPCR machine (Qiagen). Ct values were analysed using the Rotor qene Q Software. Fold change were calculated using the AACt values.

For data set [3], the system named is sPD-L1, A375 melanoma or A549 lung cancer cell lines. Kind of data set: sPD-L1 in media supernatant in the cell line studies (sandwich ELISA), cell line not specified. Type of data set: cell-based. Conditions: NUC-7738 10 uM vs DMSO. The method, then:
For sPDL1 analysis, a similar process was undertaken. Cells were grown in Corning® 100 mm TC-treated Culture Dish with DMEM, high glucose, GlutaMAX™ Supplement (ThermoFisher Cat #10566016) supplemented with 10% FBS and 1% Penicillin-Streptomycin (ThermoFisher Cat #15070063), with approximately 2×10^6 cells.
as §1
Patient plasma samples were centrifuged at 3000×g for 15 minutes to remove cellular debris. […]
For quantitative measurement of soluble PD-L1 in patient and in-vitro samples Quantikine® ELISA Human/Cynomolgus Monkey PD-L1/B7-H1 Immunoassay (R&D Systems Cat. #DB7H10) was used as per manufacturers recommendation. […]
In brief, the protocol included the preparation of the standard curve from the Human/Cynomolgus Monkey PD-L1/B7-H1 protein standard ranging from […]. […] The wells were read using a microplate reader set to 450 nm and 540 nm for wavelength correction to determine the optical density.
Analysis of the results included subtracting the 540 nm readings from 450 nm reading and subtracting blank, diluent only, sample readings. […]

Data set [4] relates to ExoPD-L1, A375 melanoma or A549 lung cancer cell lines. Kind of data set: ExoPD-L1 protein in exosomes from the cell line studies. The data set is classed as cell-based. The note with it: NUC-7738 10 uM vs DMSO. The method, then:
For Extracellular Vesicle (EV, exosome) preparation, cells were cultured in T175 Nunc™ EasYFlask™ Cell Culture Flasks (ThermoFisher Cat #159910), approximately 50×10^6 cells. Cells were grown in DMEM, high glucose, GlutaMAX™ Supplement (ThermoFisher Cat #10566016) supplemented with 5% exosome free FBS and 1% Penicillin-Streptomycin (ThermoFisher Cat #15070063).
as §1
Isolation of exosomes from in-vitro samples involved growing cells in 5 separate T175 Nunc™ EasYFlask™ Cell Culture Flasks (ThermoFisher Cat #159910) which approximated to 50×10^6 cells. Cells were grown in DMEM, high glucose, GlutaMAX™ Supplement (ThermoFisher Cat #10566016) in addition, this was supplemented with exosome free FBS. […]
Analysis of PD-L1 expression in exosomes isolated from plasma samples was carried out using automated western blotting JESS system (BioTechne, ProteinSimples). […] The expression was determined by the area under the curve using Compass Software v 6.1 (ProteinSimple).

For data set [5], the system named is exosomal PD-L1. Kind of data set: exosomal PD-L1 in plasma of patients treated with NUC-7738 (capillary-based immune probing, PD-L1/CD81). The data set is classed as in vivo, human. The note with it: plasma exosomes; for PD-L1/CD81 values: 24 h Post C1. How it is done: Patients were treated with NUC-7738 on days 1 and 8 of a 14-day cycle. Patient plasma samples were collected pre-dose, 24 hr after NUC-7738 dosage and the 24 hours post Cycle 2 (that is the second occasion at which patients received treatment).
Patient plasma samples were centrifuged at 3000×g for 15 minutes to remove cellular debris. Then, the supernatant was aliquoted in 250 μL measures and stored in−80° C. freezers. For exosomal isolation ExoQuick® ULTRA EV Isolation Kit for Serum and Plasma (System Biosciences Cat #EQULTRA-20A-1) according to manufacturer's protocol. In brief, 250 μL of plasma samples free of cellular debris was used and 67 μL ExoQuick Solution was added, followed by a 30 minute incubation period at 4° C. After that, the plasma sample and ExoQuick Solution mixture were centrifuged at 3000×g for 10 minutes. Then, carefully without disturbing the pellet, all of the supernatant was aspirated off, making sure no residual traces remained. Next, the pellet was resuspended in Buffer B provided, followed by the addition of Buffer A. The samples was homogenised in the buffer by carefully pipetting up and down until no clumps of the pellet were seen. The resin purification columns were conditioned by removing the storage buffer and washing it with Buffer B. The samples were added to the conditioned purification column and centrifuged at 1000×g for 30 seconds. The eluted samples were quantified for protein concentration using Qubit™ Protein and Protein Broad Range (BR) Assay Kits (Thermofisher Cat #A50668). Samples were then aliquoted according to the required amounts for the downstream applications and stored −80° C.
Analysis of PD-L1 expression in exosomes isolated from plasma samples was carried out using automated western blotting JESS system (BioTechne, ProteinSimples). The 12-230 kDa Separation Module of 25 capillaries kit (ProteinSimple, Cat #SM-W004) was used per manufacture protocol. Briefly, samples were prepared at the appropriate concentration using the kit master-mix and sample dilution buffer containing DT, samples were then denatured for 5 minutes at 95° C. All samples, primary antibodies and secondary antibodies were loaded into the plate provided. Anti-CD81 antibody [M38] (Abcam, Cat #ab79559) diluted at 1:100 and PD-L1 (E1L3N®) XP® Rabbit mAb (Cell Signalling, Cat #13684) diluted at 1:50 were used. Secondary antibodies used were from the anti-mouse chemiluminescence (ProteinSimple, Cat #DM002) and anti-rabbit near-infrared (NIR) (ProteinSimple, Cat #DM007) detection module, they were used at recommended dilution. The prepared plates and capillaries were then loaded onto the JESS, and sample run at the defaults settings. The expression was determined by the area under the curve using Compass Software v 6.1 (ProteinSimple).

Data set [6] has as its system exosomal PD-L1. The description is as above. Type of data set: in vivo, human. Conditions: for PD-L1/CD81 values: plasma exosomes, Pre C2 (15 days after initial cycle).
The mark [7] stands for this setting: patient 001-002, Pre C1 (untreated) 0.044.
Setting [8] is: patient 001-019, Pre C1 (untreated) 0.039.
[9] abbreviates: patient 002-002, Pre C1 (untreated) 0.035.
Setting [10] is: patient 003-008, Pre C1 (untreated) 0.045.

`Nc1ncnc2c1ncn2[C@@H]1O[C@H](CO)C[C@H]1O` [3′-dA, 3′-deoxyadenosine]: the “metabolism after administration, in vivo” value in data set [1] was “quickly deaminated by adenosine deaminase (ADA), and rapidly metabolized to an inactive metabolite”.
Take `C[C@H](NP(=O)(OC[C@@H]1CC(O)[C@H](n2cnc3c(N)ncnc32)O1)Oc1ccccc1)C(=O)OCc1ccccc1` (stereo partly drawn) [NUC-7738, 3′-deoxyadenosine-5′-O-[phenyl(benzyloxy-L-alaninyl)] phosphate]: the “decrease of mRNA” value in data set [2] is “up to 40%”. Moreover, the “time dependent decrease of sPD-L1 expression in the media supernatant” value in data set [3] is “up to 3 fold”. Also, in data set [4], the “reduction of ExoPD-L1 protein” value was 50%. Further, the PD-L1/CD81 values is 0.047 in the data set with exosomal PD-L1 [5] (setting [7]); 0.02 in the data set with exosomal PD-L1 [5] (setting [8]); 0.043 in the data set with exosomal PD-L1 [5] (setting [9]); 0.041 in the data set with exosomal PD-L1 [5] (setting [10]); 0.025 with exosomal PD-L1 [6] (setting [7]); 0.049 in the data set on exosomal PD-L1 [6] (setting [8]). In addition, the PD-L1/CD81 values in the data set on exosomal PD-L1 [6] (setting [9]) turned out to be 0.023; in the data set with exosomal PD-L1 [6] (setting [10]) it was 0.029. The “time within which the reduction of the PD-L1/CD81 ratio is seen” value in the data set on exosomal PD-L1 [5] (patient 001-019) is no more than 24 h. For the same compound, the “reductions in Exo-PD-L1 compared to pre-treatment levels” value in the data set with exosomal PD-L1 [6] (preliminary studies, serum from 4 patients treated with NUC-7738) was no more than 50%.
